In PMC10301603, “Potent and Selective Benzothiazole-Based Antimitotics with Improved Water Solubility: Design, Synthesis, and Evaluation as Novel Anticancer Agents” (Pharmaceutics, 2023):
≈ marks a conversion by molar mass, not a printed value.

How the values were obtained:
[1] = Aqueous solubility, shake-flask method; format: physicochemical; conditions: shaking flask, buffered media at pH 7.0, mean of three
How it was run: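 Shake-flask: 5 mg compound in 500 µL pH 7.0 buffer stirred 72 h at room temperature, then filtered to remove insoluble material. Saturated filtrate quantified by UV absorbance at λmax against a per-compound calibration line; value is the mean of three independent measurements.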

[2] = system: bovine brain tubulin; test: Tubulin polymerization inhibition (turbidimetry); format: biochemical; conditions: for % TPI: compounds tested at 10 µM, with respect to the negative control; for IC50: concentration inhibiting 50% of microtubular protein polymerization in vitro, read-out: TPI IC50
How it was run: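 Turbidimetric assay using calf-brain microtubular protein: polymerization started by a shift from 4 °C to 37 °C and followed by absorbance at 450 nm. Percent inhibition calculated against a ligand-free control; IC50 determined only for compounds giving >50% inhibition at 10 µM. Triplicates in two independent experiments using separate protein preparations.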

[3] = system: HeLa cells; test: Apoptotic cell death quantification (Annexin V-FITC/PI); format: cell-based, human; conditions: 72 h, 8 and 14 200 nM, 9 500 nM
Description: (§1) Annexin V-FITC/PI apoptosis detection kit (Immunostep, Salamanca, Spain) was used to quantify HeLa, MCF7, or U87 MG cells by following the manufacturer’s guidelines. An amount of 5 × 10^4 cells/mL were seeded in 12-well plates (1 mL/well) and incubated in complete DMEM medium (see above) at 37 °C and 5% CO2 atmosphere for 24 h. Then, the medium was replaced with fresh complete DMEM in the presence or absence of the selected compounds (8, 9, and 14). The concentration of the compounds was selected according to their IC50 value for the antiproliferative activity in each cell line (see above, Section 2.4.4). HeLa cells were treated with 200 nM of compounds 8 and 14 and 500 nM of compound 9; MCF7 cells were treated with 100 nM of compounds 8 and 14 and 500 nM of compound 9; and U87 MG cells were treated with 50 nM of compound 8 and 100 nM of compounds 9 and 14. Untreated cells were used as negative controls. After 72 h of incubation, cells were collected, centrifugated, resuspended in the Annexin V binding buffer, and stained with Annexin V-FITC/PI. Cells were then incubated in darkness for 15 min at room temperature. Samples were analyzed using BD Accuri™ C6 Plus Flow Cytometer (BD Biosciences), and acquired data were analyzed using BD Accuri™ C6 Software (version 1.0.264.21).

[4] = system: MCF7 cells; test: as above; format: cell-based, human; conditions: MCF7, 72 h; 8 and 14 100 nM, 9 500 nM
Description: as §1

[5] = system: U87MG cells; test: as above; format: cell-based, human; conditions: U87 MG, 72 h; 8 50 nM, 9 and 14 100 nM
Description: as §1

[6] = system: U87MG cells; test: Lactate dehydrogenase (LDH) release assay; format: cell-based, human; conditions: 72 h
Description: (§2) CytoTox96® Non-Radioactive Cytotoxicity Assay kit (Promega, Madison, WI, USA) was used to measure the release of lactate dehydrogenase (LDH) by following the previously described method in [46]. Briefly, U87 MG or HEK-293 cells were incubated for 72 h with compounds 8, 9, or 14 at concentrations ranging from 10^−9 to 10^−6 M for U87 MG cells, and from 10^−4 to 10^−3 M for HEK-293 cells. After treatment, the supernatants were collected, and the intact attached cells were lysed using 0.1% (w/v) Triton X-100 in (0.9%) NaCl solution. Both the LDH released to culture media, as well as the LDH content within the cells, were determined spectrophotometrically at 490 nm on a 96-well plate reader (Infinite 200, Tecan, Salzburg, Austria) by following the manufacturer’s instructions. LDH release was defined by the ratio of LDH released/total LDH present in the cells, with the total LDH being 100%. All the samples were run in quadruplicate.

[7] = system: HEK-293 cells; test: Lactate dehydrogenase (LDH) release assay; format: cell-based, human; conditions: HEK-293, 72 h; for LDH release: 100 µM
Description: as §2, with “Briefly, U87 MG or HEK-293 cells were incubated for 72 h with compounds 8, 9, or 14 at concentrations ranging from 10^−9 to 10^−6 M for U87 MG cells, and from 10^−4 to 10^−3 M for HEK-293 cells.” left out

Row | Solubility [1] | IC50 [2] | LDH release [7] | solubility at 72 h ([1]; pH 7.0 buffer, pH 7, aqueous buffer, thermodynamic from solid) | SMILES | % TPI [2] | early and late apoptosis (apoptotic cells) [3] | Alive cells (PI−, AnV−) [4] | apoptosis (apoptotic cells) [4] | cells in early or late apoptosis (response to Annexin V) [5] | LDH release ([6]; 1 nM) | LDH release ([6]; 10 nM) | LDH release ([6]; 100 nM) | cell death (LDH release) ([6]; above 100 nM) | cytotoxic effect by LDH release (in words) ([7]; between 0.1 and 1 µM)
1 | 0.102 mg/mL (≈ 298 µM) | 2.9 µM | ~30% |  | CCNC(=O)N(Cc1cccnc1)c1nc2ccc(OC)cc2s1 [Compound 8] | 100% | 93% | 46% | 47% | 80% | ~40% | over 60% | 100% |  | 
2 |  | 4.1 µM | ~30% | 0.095 mg/mL (≈ 317 µM) | COc1ccc2nc(N(C=O)Cc3cccnc3)sc2c1 [Compound 14, N-(6-methoxybenzo[d]thiazol-2-yl)-N-(pyridin-3-ylmethyl)formamide] | 87% | 86% |  | 71% | 67% | around 10% | ~20% |  | 100% | No significant cytotoxic effects
